Source: ChEMBL document CHEMBL1201862, “PubChem BioAssay data set” (2004)
Active and inactive are the calls of the source.

Tests used:
[1] = cells; conditions: HEK293
[2] = alpha-synuclein stem-loop luciferase translation blockers – H4 neuroglioma cells, luminescence, confirmation (AID 1988); assay type: functional, cell-based
[3] = target: T1, DNA repair protein RAD52 homolog (Homo sapiens, UniProt P43351); assay type: functional, biochemical
T1 sequence (P43351 whole entry): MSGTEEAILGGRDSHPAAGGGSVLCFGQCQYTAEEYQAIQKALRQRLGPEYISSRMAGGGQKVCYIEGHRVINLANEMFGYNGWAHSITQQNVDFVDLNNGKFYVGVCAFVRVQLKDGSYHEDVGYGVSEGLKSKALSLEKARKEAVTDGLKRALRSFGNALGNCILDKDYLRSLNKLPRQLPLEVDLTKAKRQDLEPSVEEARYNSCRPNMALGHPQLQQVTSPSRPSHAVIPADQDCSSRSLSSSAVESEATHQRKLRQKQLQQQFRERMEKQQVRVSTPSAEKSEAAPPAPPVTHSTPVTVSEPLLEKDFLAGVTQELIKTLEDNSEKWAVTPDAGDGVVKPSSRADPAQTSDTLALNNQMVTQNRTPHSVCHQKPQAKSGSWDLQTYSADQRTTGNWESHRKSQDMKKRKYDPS

[4] = cells; assay type: functional, cell-based; conditions: HEK-CNG
[5] = cells; conditions: A549
[6] = Luminescence Cell-Based Dose Response HTS to Identify Inhibitors of 5'UTR Stem-Loop Driven Prion Protein mRNA Translation in H4 Neuroglioblastoma Cells. [Related pubchem assays: 1827 (Project Summary), 1813 (Primary HTS)]; assay type: functional
[7] = Trypanosoma cruzi growth suppression in host cells – NIH3T3 host cells, beta-gal luminescence, confirmation (AID 2044); assay type: functional, cell-based;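 further: intracellular parasites grown in NIH/3T3 mouse fibroblasts as host cells; luminescent beta-galactosidase reporter signal from transgenic T. cruzi replicating inside host cells; inhibitors lower the luminescence signal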
[8] = target: T2, Neuropeptide Y receptor type 2 (Homo sapiens, UniProt P49146); experiment: IC50 for human NPY-Y2 blockade – cell-based, counter-screen for NPY-Y1 antagonist project, dose response (AID 1278); assay type: functional
T2 sequence (P49146 whole entry): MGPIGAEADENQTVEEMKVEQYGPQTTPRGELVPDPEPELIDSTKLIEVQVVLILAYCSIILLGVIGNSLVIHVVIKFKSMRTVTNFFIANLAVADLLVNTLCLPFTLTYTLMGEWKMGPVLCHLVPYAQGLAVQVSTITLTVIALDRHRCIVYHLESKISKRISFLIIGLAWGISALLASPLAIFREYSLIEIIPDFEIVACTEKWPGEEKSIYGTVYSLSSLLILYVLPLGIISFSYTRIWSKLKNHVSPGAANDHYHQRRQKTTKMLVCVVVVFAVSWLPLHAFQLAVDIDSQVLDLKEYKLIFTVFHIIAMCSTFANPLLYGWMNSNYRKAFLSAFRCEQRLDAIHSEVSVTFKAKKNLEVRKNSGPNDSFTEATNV

[9] = target: T3, Galanin receptor type 3 (Homo sapiens, UniProt O60755); experiment: Fluorescence-based cell-based primary high throughput dose response assay to identify antagonists of the Galanin Receptor 3 (GalR3).; assay type: functional
T3 sequence (O60755 whole entry): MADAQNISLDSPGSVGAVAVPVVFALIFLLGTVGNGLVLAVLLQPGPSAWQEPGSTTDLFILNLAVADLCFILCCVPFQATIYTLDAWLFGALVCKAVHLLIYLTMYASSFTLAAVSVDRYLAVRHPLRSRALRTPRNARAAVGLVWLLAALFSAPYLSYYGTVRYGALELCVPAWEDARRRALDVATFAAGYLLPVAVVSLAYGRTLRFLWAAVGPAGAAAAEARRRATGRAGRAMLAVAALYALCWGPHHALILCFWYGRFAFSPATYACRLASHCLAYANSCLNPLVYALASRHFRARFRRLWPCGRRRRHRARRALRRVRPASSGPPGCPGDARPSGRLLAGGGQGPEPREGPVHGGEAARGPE

[10] = viability loss in HepG2 liver cells – cell-based, ATP luminescence, cherry-pick, set 6, cytotoxicity control, dose response (AID 1053125); assay type: functional
[11] = target: T4, Serine/threonine-protein phosphatase (Candida dubliniensis (strain CD36 / CBS 7987 / NCPF 3949 / NRRLY-17841) (Yeast), UniProt B9W6M3); experiment: blockers of CaCl2-induced CDRE-lacZ signaling – S. cerevisiae, luminescence, secondary, dose response (AID 2388); assay type: functional, cell-based;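 further: yeast reporter cells carrying a calcineurin-responsive lacZ construct stimulated with calcium chloride; luminescent beta-galactosidase reporter signal in whole cells rather than isolated phosphatase activity; potency for inhibition where a drop in reporter signal means calcineurin blockade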
T4 sequence (B9W6M3 whole entry): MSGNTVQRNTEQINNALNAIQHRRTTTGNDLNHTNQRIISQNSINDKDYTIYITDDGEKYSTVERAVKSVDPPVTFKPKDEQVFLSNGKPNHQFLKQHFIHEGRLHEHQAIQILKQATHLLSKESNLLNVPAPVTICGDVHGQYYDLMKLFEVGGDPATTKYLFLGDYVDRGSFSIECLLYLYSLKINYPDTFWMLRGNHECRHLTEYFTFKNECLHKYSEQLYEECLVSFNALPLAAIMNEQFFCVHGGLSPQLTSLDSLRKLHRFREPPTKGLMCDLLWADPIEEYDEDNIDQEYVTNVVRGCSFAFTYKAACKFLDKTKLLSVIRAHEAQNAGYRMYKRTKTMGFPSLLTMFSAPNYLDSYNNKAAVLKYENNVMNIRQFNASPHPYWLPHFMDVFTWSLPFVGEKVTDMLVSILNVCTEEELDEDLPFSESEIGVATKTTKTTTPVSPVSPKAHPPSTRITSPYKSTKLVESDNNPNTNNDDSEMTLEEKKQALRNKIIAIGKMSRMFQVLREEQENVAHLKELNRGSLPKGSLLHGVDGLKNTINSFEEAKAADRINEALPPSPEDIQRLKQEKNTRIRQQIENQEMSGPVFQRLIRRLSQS

[12] = fluconazole-exposed Candida albicans growth modulators – fluorescence, retest, confirmation (AID 2467); assay type: functional, cell-based
[13] = target: T5, Neuropeptide Y receptor type 1 (Homo sapiens, UniProt P25929); experiment: IC50 of human NPY-Y1 blockers – cell-based, dose response (AID 1277); assay type: functional
T5 sequence (P25929 whole entry): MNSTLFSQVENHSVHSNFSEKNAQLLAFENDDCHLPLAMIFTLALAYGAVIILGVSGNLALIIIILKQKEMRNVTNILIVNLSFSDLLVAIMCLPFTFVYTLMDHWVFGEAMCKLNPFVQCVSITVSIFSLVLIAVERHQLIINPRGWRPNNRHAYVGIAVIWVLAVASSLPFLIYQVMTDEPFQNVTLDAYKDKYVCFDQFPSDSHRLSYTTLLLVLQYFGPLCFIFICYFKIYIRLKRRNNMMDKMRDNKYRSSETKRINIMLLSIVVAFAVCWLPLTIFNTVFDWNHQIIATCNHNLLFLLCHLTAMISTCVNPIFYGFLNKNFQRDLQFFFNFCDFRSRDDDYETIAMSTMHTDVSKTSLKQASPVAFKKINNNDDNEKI

[14] = luciferase reporter signal suppression in cells – H4 neuroglioma cells, luminescence, dose response (AID 1990); assay type: functional, cell-based
[15] = target: ATP-dependent molecular chaperone HSP82 (Candida albicans (strain WO-1) (Yeast), UniProt C4YTQ8); experiment: steroid-induced GRE reporter decrease in yeast – S. cerevisiae, luminescence, Hsp90 inhibitor project, dose response (AID 2400); assay type: functional, cell-based;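 further: beta-galactosidase luminescence from glucocorticoid response element reporter as proxy for Hsp90 function; inhibitor potency where signal loss means Hsp90 inhibition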
[16] = NIH-3T3 fibroblast cytotoxicity, dose response, cytotoxicity control, cell-based, fluorescence, Alamar Blue, secondary assay (AID 2327); assay type: functional;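 further: NIH-3T3 mouse fibroblasts cultured with fluconazole at 8 µg/mL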
[17] = NIH3T3 cell viability loss – ATP luminescence, mouse fibroblasts, counter-screen, dose response (AID 2010); assay type: functional, cell-based;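 further: cells exposed to compound for about 90 hours before reading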
[18] = cells

Sequence of ATP-dependent molecular chaperone HSP82 (C4YTQ8 whole entry): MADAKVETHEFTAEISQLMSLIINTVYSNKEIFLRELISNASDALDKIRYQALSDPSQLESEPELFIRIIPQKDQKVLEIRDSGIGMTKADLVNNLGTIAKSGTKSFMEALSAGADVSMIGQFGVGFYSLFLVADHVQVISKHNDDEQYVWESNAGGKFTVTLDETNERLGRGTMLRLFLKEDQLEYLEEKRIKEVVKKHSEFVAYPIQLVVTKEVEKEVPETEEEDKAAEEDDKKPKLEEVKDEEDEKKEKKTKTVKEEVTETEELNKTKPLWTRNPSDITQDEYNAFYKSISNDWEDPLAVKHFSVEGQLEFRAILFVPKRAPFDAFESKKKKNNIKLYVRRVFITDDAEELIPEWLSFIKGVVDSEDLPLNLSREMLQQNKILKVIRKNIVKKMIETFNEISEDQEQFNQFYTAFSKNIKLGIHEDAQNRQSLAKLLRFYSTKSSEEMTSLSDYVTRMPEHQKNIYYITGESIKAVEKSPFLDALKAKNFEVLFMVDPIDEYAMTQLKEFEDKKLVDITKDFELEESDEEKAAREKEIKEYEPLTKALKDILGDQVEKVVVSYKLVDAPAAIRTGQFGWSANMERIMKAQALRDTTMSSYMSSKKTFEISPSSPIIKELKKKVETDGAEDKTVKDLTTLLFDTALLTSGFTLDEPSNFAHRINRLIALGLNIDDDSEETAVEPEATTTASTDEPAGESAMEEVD

For `CC[n+]1c(/C=C2\SC(c3ccccc3C)=CN2C)sc2ccccc21`, the AC50 [1] was 2.77 µM (active), the EC50 [2] was 0.619 µM (active) and the AC50 [3] was 8.2 µM (active). The EC50 [4] was > 29.9 µM (inactive), the AC50 [5] was 2.44 µM (active) and the EC50 [6] was 8.01 µM (active). The EC50 [7] was < 0.1 µM (active), the IC50 [8] was 29.6 µM (not active) and the IC50 [9] was 0.404 µM (active). The AC50 [10] was 2.18 µM (active), the EC50 [11] was > 180 µM (inactive) and the EC50 [12] was 0.212 µM (active). The IC50 [13] was 6.98 µM (active), the EC50 [14] was 8.74 µM (active) and the EC50 [15] was > 150 µM (inactive). For the same compound, the EC50 [16] was > 150 µM (inactive), the EC50 [17] was 7.48 µM (active) and the EC50 [18] was 0.021 µM (active).
